From US20050272055A1 (priority 2000, published 2005)
Entries after “also recorded” stand apart in the source; their conditions may differ.

Legend:
piglets [1] = conditions: in vivo
human lymphoid cells = format: cell-based
TNF-α = format: cell-based, human
piglets [2] = system: piglets; parameters: species or system Yorkshire piglets; conditions: in vivo
CD69 = format: cell-based, human

1,2,3,9-tetrahydro-9-methyl-3-[(2-methyl-1H-imidazol-1-yl)]4H-carbazol-4-one,monohychloride, dehydrate [Zofran]
BP-24 h (systolic blood pressure) (piglets [1]): 50-60 | BP-48 h (systolic blood pressure) (piglets [1]): 50-65 | Blood Gases (piglets [1]): norm | Temp-24 h (piglets [1]): 101-103° | Temp-48 h (piglets [1]): 100-103° | blood pressure levels in treated and untreated animals (piglets [1]): no change in the blood pressure | cytokine surge (piglets [1]): blocks the cytokine surge | diarrhea (piglets [1]): diarrhea was stopped | effectiveness as 5-HT receptor blockers against SEB-induced incapacitation (piglets [1]): effective | emesis (piglets [1]): recovered from emesis | symptoms caused by increase in serotonin levels (piglets [1]): can block the symptoms | temperature (piglets [1]): slight improvement in lowering the temperature

COc1ccc2c(c[n+](C)c3c4cc5c(cc4ccc23)OCO5)c1OC [Chelerythrine]
effect on SEB-induced proliferation (human lymphoid cells): effectively blocked | effect on SEB-induced TNF-alpha production (TNF-α): blocked production of TNF-α

O=c1c(-c2ccc(O)cc2)coc2cc(O[C@@H]3O[C@H](CO)[C@@H](O)[C@H](O)[C@H]3O)cc(O)c12 [Genistin]
animals showing this outcome (piglets [2]): 2/2 | changes in toxin-induced symptoms compared to the untreated controls (piglets [2]): did not show any significant changes | pathology versus SEB controls (piglets [2]): No discernable change in pathology

CO[C@H]1[C@@H](OC)C[C@H](C)[C@@H](OC)C2=CC(=O)C=C(NC(=O)/C(C)=C/C=C\[C@H](OC)[C@@H](OC(N)=O)/C(C)=C/[C@@H]1C)C2=O [Herbimycin]
animals showing this outcome (piglets [2]): 2/2 | changes in toxin-induced symptoms compared to the untreated controls (piglets [2]): did not show any significant changes | pathology versus SEB controls (piglets [2]): No discernable change in pathology | rescuing the animals (piglets [2]): partially effective

CN1C2CCCC1CC(NC(=O)c1nn(C)c3ccccc13)C2 (stereo not shown) [Kytril]
diarrhea (piglets [1]): diarrhea was stopped | effectiveness as 5-HT receptor blockers against SEB-induced incapacitation (piglets [1]): effective | symptoms caused by increase in serotonin levels (piglets [1]): can block the symptoms

C[S+]([O-])c1ccc(-c2nc(-c3ccncc3)c(-c3ccc(F)cc3)[nH]2)cc1 (stereo not shown) [P-38 inhibitor]
effect on SEB-induced proliferation (human lymphoid cells): clearly inhibited | effect on SEB induction of CD69 (CD69): clearly blocked | effect on induction of the TNF-α gene by SEB (TNF-α): brought down back to control levels

CC(=O)CCCCn1c(=O)c2c(ncn2C)n(C)c1=O [Pentoxifylline]
animals showing this pathology (piglets [2]): 3/3 | animals survived after the treatment (piglets [2]): 3 out of 3 | animals with moderate pathology (piglets [2]): 2/3 | animals worse-off, similar to SEB control (piglets [2]): 1/3 | gross pathology findings (piglets [2]): No perirenal or mesenteric edema, though there is mesenteric lymphadenopathy | pathology (piglets [2]): Mild pathology; also recorded: Moderate pathology | time post exposure to SEB up to which it works well (piglets [2]): up to 4 hours
